Results reported in patent US11446298B2, “Pyrimidine derivatives” (Idorsia Pharmaceuticals Ltd, priority 2017, dated 2022).

How the values were obtained:
Format in all cases: cell-based
EP4 = biological target: T1, EP4 (Homo sapiens, UniProt P35408); assay: hEP4 cAMP Assay (BT549 breast cancer cells, HTRF cAMP, PGE2 6 nM); conditions: antagonistic activity, PGE2 6 nM (EC80)
T1 construct: BT549 breast cancer cells, express high endogenous EP4 levels and very low EP2 levels; host or cells: BT549 breast cancer cells
In short: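 Antagonism is measured as inhibition of PGE2 (6 nM final, EC80) cAMP accumulation in EP4-expressing BT549 breast cancer cells, after a 45 min room-temperature compound pre-incubation and 30 min agonist step, with 2 mM IBMX present. HTRF ratio gives cAMP relative to DMSO; IC50 fitted, means over repeat runs.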

PTGER2 (EP2) = biological target: T2, PTGER2 (EP2) (Homo sapiens, UniProt P43116); assay: hEP2 b-Arrestin Assay (PathHunter HEK 293 PTGER2 b-arrestin cells, PGE2 5 μM); conditions: antagonistic activity, beta-arrestin assay, HEK 293 PTGER2 cells, PGE2 5 μM (EC80); read-out: hEP2 b-arr IC50
T2 construct: host or cells: HEK 293 (PathHunter, stably transfected)
In short: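 PathHunter enzyme-fragment complementation in HEK 293 cells: compounds (10 μM-2 nM or 1 μM-0.2 nM) pre-incubated 15 min at 37 °C, then 5 μM PGE2 (EC80) for 120 min at 37 °C. Chemiluminescence read after 1 h detection; IC50 from duplicate dose-response fits, means of repeats.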

PTGER4 (EP4) = biological target: T3, PTGER4 (EP4) (Homo sapiens, UniProt P35408); assay: hEP4 b-Arrestin Assay (PathHunter HEK 293 PTGER4 b-arrestin cells, PGE2 20 nM); conditions: antagonistic activity, beta-arrestin assay, HEK 293 PTGER4 cells, PGE2 20 nM (EC80); read-out: hEP4 b-arr IC50
T3 construct: host or cells: HEK 293 (PathHunter, stably transfected)
In short: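 PathHunter HEK 293 EP4 b-arrestin enzyme-complementation cells preincubated 15 min at 37° C with compound (10 μM-2 nM or 1 μM-0.2 nM), then stimulated 120 min with 20 nM PGE2 (EC80). Chemiluminescence read; IC50 from duplicate % activity vs DMSO, one-site fit, averaged over repeats.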

EP2 = biological target: T4, EP2 (Homo sapiens, UniProt P43116); assay: hEP2 cAMP Assay (SF295 glioblastoma cells, HTRF cAMP, PGE2 75 nM); conditions: antagonistic activity, PGE2 75 nM (EC80)
T4 construct: SF295 glioblastoma cells express high endogenous EP2 and no EP4; host or cells: SF295 glioblastoma cells
In short: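 IC50 values derive from duplicate-point curves of percent cAMP relative to DMSO, read by HTRF (665/620 nm) against a cAMP calibrator. Compounds (30 μM to 0.01 nM ranges) were given 45 min at room temperature before 30 min with 75 nM PGE2, in EP2-only SF295 cells with 2 mM IBMX.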

T1 sequence (P35408 whole entry): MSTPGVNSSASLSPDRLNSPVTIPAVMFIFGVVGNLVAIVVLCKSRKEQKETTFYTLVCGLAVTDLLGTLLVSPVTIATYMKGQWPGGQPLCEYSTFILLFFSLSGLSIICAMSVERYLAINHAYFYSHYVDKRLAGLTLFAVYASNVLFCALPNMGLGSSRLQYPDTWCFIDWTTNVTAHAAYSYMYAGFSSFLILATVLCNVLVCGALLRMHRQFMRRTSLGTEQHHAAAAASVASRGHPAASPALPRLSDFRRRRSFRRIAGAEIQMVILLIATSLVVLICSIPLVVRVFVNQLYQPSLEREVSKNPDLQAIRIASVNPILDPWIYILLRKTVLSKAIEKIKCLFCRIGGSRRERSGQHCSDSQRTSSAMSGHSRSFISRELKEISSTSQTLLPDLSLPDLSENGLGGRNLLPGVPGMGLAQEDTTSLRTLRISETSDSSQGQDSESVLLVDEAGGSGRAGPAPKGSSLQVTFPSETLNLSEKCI
T3 sequence (P35408 whole entry): as above
T4 sequence (P43116 whole entry): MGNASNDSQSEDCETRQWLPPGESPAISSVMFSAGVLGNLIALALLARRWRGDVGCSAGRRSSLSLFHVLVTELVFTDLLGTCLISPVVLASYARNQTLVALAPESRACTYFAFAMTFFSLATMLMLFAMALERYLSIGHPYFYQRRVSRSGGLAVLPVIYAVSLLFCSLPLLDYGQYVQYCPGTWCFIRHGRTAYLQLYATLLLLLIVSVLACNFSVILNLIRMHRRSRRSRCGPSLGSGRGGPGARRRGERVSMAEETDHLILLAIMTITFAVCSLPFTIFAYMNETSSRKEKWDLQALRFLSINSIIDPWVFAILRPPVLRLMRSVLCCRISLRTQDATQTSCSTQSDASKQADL
T2 sequence (P43116 whole entry): as above

SMILES	IC50 (EP4) [nM]	IC50 (PTGER2 (EP2)) [nM]	IC50 (PTGER4 (EP4)) [nM]	IC50 (EP2) [nM]
CCOc1cc(-c2cc(NCCc3c(C#N)ccc4c(OC)ccc(F)c34)ncn2)sc1C(=O)O [Example 158, 5-{6-[2-(2-Cyano-8-fluoro-5-methoxy-naphthalen-1-yl)-ethylamino]-pyrimidin-4-yl}-3-ethoxy-thiophene-2-carboxylic acid]	3	126	3	286
CCCCOc1cc(-c2cc(NCCc3c(OC)ccc4ccccc34)ncn2)ccc1C(=O)O [Example 119, 2-Butoxy-4-{6-[2-(2-methoxy-naphthalen-1-yl)-ethylamino]-pyrimidin-4-yl}-benzoic acid]	200	18	222	12
CCOc1cc(-c2cc(NCCc3c(F)ccc4ccccc34)ncn2)sc1C(=O)O [Example 95, 3-Ethoxy-5-{6-[2-(2-fluoro-naphthalen-1-yl)-ethylamino]-pyrimidin-4-yl}-thiophene-2-carboxylic acid]	21	8	51	4
CCc1nc(-c2cc(NCCc3c(OC)ccc4ccccc34)ncn2)sc1C(=O)O [Example 148, 4-Ethyl-2-{6-[2-(2-methoxy-naphthalen-1-yl)-ethylamino]-pyrimidin-4-yl}-thiazole-5-carboxylic Acid]	548	20	264	27
CCOc1cc(-c2cc(NCCc3c(OC)ccc4c3CCO4)ncn2)sc1C(=O)O [Example 34, 3-Ethoxy-5-{6-[2-(5-methoxy-2,3-dihydro-benzofuran-4-yl)-ethylamino]-pyrimidin-4-yl}-thiophene-2-carboxylic acid]	152	39	114	64
CCOc1cc(-c2cc(NCCc3cccc4c3ccn4C)ncn2)sc1C(=O)O [Example 25, 3-Ethoxy-5-{6-[2-(1-methyl-1H-indol-4-yl)-ethylamino]-pyrimidin-4-yl}-thiophene-2-carboxylic acid]	48	15	145	15
CCOc1cc(-c2cc(NCCc3cccc4[nH]ccc34)ncn2)sc1-c1noc(=O)[nH]1 [Example 137, 3-(3-Ethoxy-5-{6-[2-(1H-indol-4-yl)-ethylamino]-pyrimidin-4-yl}-thiophen-2-yl)-[1,2,4]oxadiazol-5(4H)-one]	37	16	37	37
CCOc1cc(-c2cc(NCCc3c(C#N)ccc4ccccc34)ncn2)ccc1C(=O)O [Example 67, 4-{6-[2-(2-Cyano-naphthalen-1-yl)-ethylamino]-pyrimidin-4-yl}-2-ethoxy-benzoic acid]	309	29	499	25
CCOc1cc(-c2cc(NCCc3c(OC)ccc4ncccc34)ncn2)sc1-c1nnn[nH]1 [Example 145, {6-[4-Ethoxy-5-(1H-tetrazol-5-yl)-thiophen-2-yl]-pyrimidin-4-yl}-[2-(6-methoxy-quinolin-5-yl)-ethyl]-amine]	53	16	18	81
COc1ccc2ccccc2c1CCNc1cc(-c2ccc(C(=O)O)c(OCCO)c2)ncn1 [Example 155, 2-(2-Hydroxy-ethoxy)-4-{6-[2-(2-methoxy-naphthalen-1-yl)-ethylamino]-pyrimidin-4-yl}-benzoic acid]	296	45	2230	16
CCOc1nc(-c2cc(NCCc3c(OC)ccc4ccccc34)ncn2)sc1C(=O)O [Example 147, 4-Ethoxy-2-{6-[2-(2-methoxy-naphthalen-1-yl)-ethylamino]-pyrimidin-4-yl}-thiazole-5-carboxylic Acid]	44	7	40	10
CCOc1cc(-c2cc(NCCc3ccc(C)c4ccccc34)ncn2)sc1C(=O)O [Example 18, 3-Ethoxy-5-{6-[2-(4-methyl-naphthalen-1-yl)-ethylamino]-pyrimidin-4-yl}-thiophene-2-carboxylic acid]	7	19	9	21
CCOc1cc(-c2cc(NCCc3c(C)ccc4c3cnn4C)ncn2)sc1C(=O)O [Example 79, 5-{6-[2-(1,5-Dimethyl-1H-indazol-4-yl)-ethylamino]-pyrimidin-4-yl}-3-ethoxy-thiophene-2-carboxylic acid]	92	36	196	25
CCOc1cc(-c2cc(NCCc3cccc4[nH]ccc34)ncn2)sc1C(=O)O [Example 39, 3-Ethoxy-5-{6-[2-(1H-indol-4-yl)-ethylamino]-pyrimidin-4-yl}-thiophene-2-carboxylic acid]	101	81	386	50
CCOc1cc(-c2cc(NCCc3cccc4cccnc34)ncn2)sc1-c1noc(=O)[nH]1 [Example 140, 3-{3-Ethoxy-5-[6-(2-quinolin-8-yl-ethylamino)-pyrimidin-4-yl]-thiophen-2-yl}-[1,2,4]oxadiazol-5(4H)-one]	17	119	15	142
CCOc1nc(-c2cc(NCCc3c(OC)ccc4ccccc34)ncn2)sc1-c1noc(=O)[nH]1 [Example 149, 3-(4-Ethoxy-2-{6-[2-(2-methoxy-naphthalen-1-yl)-ethylamino]-pyrimidin-4-yl}-thiazol-5-yl)-[1,2,4]oxadiazol-5(4H)-one]	52	5	6	15
CCOc1cc(-c2cc(NCCc3c(OC)ccc4ccccc34)ncn2)ccc1OCCC(=O)O [Example 120, 3-(2-Ethoxy-4-{6-[2-(2-methoxy-naphthalen-1-yl)-ethylamino]-pyrimidin-4-yl}-phenoxy)-propionic acid]	206	16	75	88
CCOc1cc(-c2cc(NCCc3c(Cl)ccc4cccnc34)ncn2)sc1C(=O)O [Example 15, 5-{6-[2-(7-Chloro-quinolin-8-yl)-ethylamino]-pyrimidin-4-yl}-3-ethoxy-thiophene-2-carboxylic acid]	171	27	192	25
CCOc1cc(-c2cc(NCCc3cccc4ccsc34)ncn2)sc1C(=O)O [Example 103, 5-[6-(2-Benzo[b]thiophen-7-yl-ethylamino)-pyrimidin-4-yl]-3-ethoxy-thiophene-2-carboxylic acid]	73	33	314	79
CCOc1cc(-c2cc(NCCc3c(C)ccc4cnccc34)ncn2)sc1C(=O)O [Example 85, 3-Ethoxy-5-{6-[2-(6-methyl-isoquinolin-5-yl)-ethylamino]-pyrimidin-4-yl}-thiophene-2-carboxylic acid]	130	30	244	32
CCOc1cc(-c2cc(NCCc3c(OC)ccc4c3OCO4)ncn2)sc1C(=O)O [Example 44, 3-Ethoxy-5-{6-[2-(5-methoxy-benzo[1,3]dioxol-4-yl)-ethylamino]-pyrimidin-4-yl}-thiophene-2-carboxylic acid]	42	36	51	37
CCCc1cc(-c2cc(NCCc3c(OC)ccc4ccccc34)ncn2)ccc1C(=O)O [Example 121, 4-{6-[2-(2-Methoxy-naphthalen-1-yl)-ethylamino]-pyrimidin-4-yl}-2-propyl-benzoic acid]	53	12	308	5
CCOc1cc(-c2cc(NCCc3cccc4ncccc34)ncn2)sc1-c1noc(=O)[nH]1 [Example 188, 3-{3-Ethoxy-5-[6-(2-quinolin-5-yl-ethylamino)-pyrimidin-4-yl]-thiophen-2-yl}-[1,2,4]oxadiazol-5(4H)-one]	22	59	282	324
CCOc1cc(-c2cc(NCCc3cccc4sccc34)ncn2)sc1C(=O)O [Example 108, 5-[6-(2-Benzo[b]thiophen-4-yl-ethylamino)-pyrimidin-4-yl]-3-ethoxy-thiophene-2-carboxylic acid]	31	31	225	52
